# Source: patent US9918941B2 (Eastbrand Holding GMBH, priority 2012, dated 2018)
# What was measured:
# [1] = Degradation / related substances (USP analytical method); assay type: physicochemical; conditions: reaction mixture up to 60° C. and gelation, finished microcapsules
# From the text: No related substances derived from the degradation of diclofenac mentioned in USP were detected in HPSC.
# Only 2% were found above 1000, and only 1% under 250 micron.
# [2] = test system: Carrageenin-induced edema in the paw; experiment: Anti-inflammatory activity, Carrageenin-induced edema in the paw (Winter, Risley and Nuss); assay type: in vivo, Sprague Dawley rats; conditions: rats, ± e.s.
# [3] = test system: gastric mucus; experiment: Gastric tolerance, Pisanti-Volterra method; assay type: in vivo, Sprague Dawley rats; conditions: rats, score 0 (normal stomach) to 6 (perforated ulcer)
# From the text: The following scores were attributed according to the type and intensity of the injury observed: • Score 0=Normal stomach without injury; 1=Haemorrhaging points; 2=Haemorrhaging diffusion (reddening of the surface); 3=1-5 small ulcers (<3 mm); 4=Large number of small ulcers or a deep isolated ulceration; 5=Many ulcers of various size; 6=Perforated ulcer. • The degree of gastric injury is defined by the average score; the higher score corresponds to a greater gastric injury
# [4] = test system: acute chemical visceral pain model; experiment: Analgesic activity, abdominal contraction test with acetic acid (Writhing Test); assay type: in vivo, Swiss rats; conditions: inhibition of number of contractions vs control animals
# Method: Adult male Swiss rats were used in the assay, 28-30 g in weight, 10 animals per treatment group or for each assessed dose level. 1-The analgesic activity/action was assessed by using an acute chemical visceral pain model, the abdominal contraction test with acetic acid (Writhing Test) (Miranda, H; Puig, […]. Synergism between paracetamol and nonsteroidal anti-inflammatory drugs in experimental acute pain. Pain (12) 2006. 22-28) ([…]. The Type of Analgesic-Receptor interaction involved in certain analgesic assays. European Journal of Pharmacology 16 (1971) 63-66. North Holland Publishing Company) […] The antinociceptive activity was expressed as the inhibition percentage of the number of contractions observed in the animals in the groups treated at each of the assessed dose levels, with respect to the number of contractions in the study control animals.
degradation / related substances [1],SMILES,% Inflammation inhibition 1st hour ([2]; Dose: 12.5 mg/kg) [%],% Inflammation inhibition 2nd hour ([2]; Dose: 12.5 mg/kg) [%],% Inflammation inhibition 3rd hour ([2]; Dose: 12.5 mg/kg) [%],% Inflammation inhibition 4th hour ([2]; Dose: 12.5 mg/kg) [%],% Inflammation inhibition 5th hour ([2]; Dose: 12.5 mg/kg) [%],% Inflammation inhibition 2nd hour ([2]; Dose: 25.0 mg/kg) [%],% Inflammation inhibition 3rd hour ([2]; Dose: 25.0 mg/kg) [%],% Inflammation inhibition 4th hour ([2]; Dose: 25.0 mg/kg) [%],% Inflammation inhibition 5th hour ([2]; Dose: 25.0 mg/kg) [%],% Inflammation inhibition 2nd hour ([2]; Dose: 50.0 mg/kg) [%],% Inflammation inhibition 3rd hour ([2]; Dose: 50.0 mg/kg) [%],% Inflammation inhibition 4th hour ([2]; Dose: 50.0 mg/kg) [%],% Inflammation inhibition 5th hour ([2]; Dose: 50.0 mg/kg) [%],Degree of Gastric Injury Avg. score ± e.s. ([3]; Dose: 12.5 mg/kg),Degree of Gastric Injury Avg. score ± e.s. ([3]; Dose: 25.0 mg/kg),Degree of Gastric Injury Avg Score ± e.s. ([3]; Dose: 50.0 mg/kg),Analgesic Activity (% Inhibition) Avg. Score ± e.s. ([4]; Dose: 12.5 mg/kg) [%],Analgesic Activity (% Inhibition) Avg. Score ± e.s. ([4]; Dose: 25.0 mg/kg) [%]
not degraded,"O=C(O)Cc1ccccc1Nc1c(Cl)cccc1Cl [diclofenac, 2-((2,6 dichlorophenyl)amino)phenyl acetic (diclofenac) acid]",,,,,,,,,,,,,,,,,,
,O=C(O)Cc1ccccc1Nc1c(Cl)cccc1Cl [diclofenac potassium],37.2 ± 12.2,42.5 ± 13.1,28.3 ± 9.5,30.6 ± 9.8,29.7 ± 10.8,36.4 ± 8.49,28.0 ± 13.56,23.3 ± 6.66,15.7 ± 5.61,45.8 ± 8.3,41.4 ± 6.9,47.2 ± 5.2,43.2 ± 4.5,2.64 ± 0.59,3.81 ± 0.35,4.80 ± 0.50,53.23 ± 5.53,67.26 ± 4.62
